Laboratory results from patent publication US20260199496A1, “LINKER, LINKER-CONTAINING ANTIBODY DRUG CONJUGATE, AND PREPARATION METHOD THEREFOR AND USE THEREOF” (CHENGDU CHIPSCREEN NEWWAY BIOSCIENCES CO., LTD., priority 2022, published 2026).
Values joined by “and” are separate entries in the source; they are usually repeats but may differ in a detail not shown here. Equal entries are not always repeated.

How the values were obtained:
[1] = molecular target: Rat PD-L1-his (Rattus norvegicus, UniProt D4AE25); experiment: SPR (Biacore T200) affinity for Rat PD-L1-his; conditions: ligand Rat-PD-L1-His, 1:1 binding model
Experimental: (§1) […] Cyno PD-L1-his was captured onto the chip surface. The antibody-drug conjugate samples and the naked antibody sample were 2-fold diluted with 1×PBST to give a total of 7 concentration points, with the sample concentrations all being 25 nM-0.39 nM. The program was set. The samples were then loaded, and the program was executed. Data were analyzed using the Biacore Evaluation Software with the 1:1 binding model for kinetic fitting. The above steps were repeated. 2 μg/mL hPD-L1-his, 5 μg/mL mPD-L1-his, and 5 µg/mL Rat PD-L1-his were captured onto the chip surface separately. The above 4 samples were 2-fold diluted with 1×PBST. […] The program was set. The samples were then loaded, and the program was executed. Data were analyzed using the Biacore Evaluation Software with the 1:1 binding model for kinetic fitting.

[2] = tested on: MC38 tumor; experiment: C57BL/6J mouse MC38 tumor model, ADC vs naked antibody (18.1); type: in vivo; conditions: 10 mg/kg intraperitoneal, three times per week, day 7 post-administration
Experimental: 18.1. The specific procedures were as follows: On the day of cell inoculation, each C57BL/6J mouse was subcutaneously inoculated with 3×10^5 MC38 cells (0.1 mL/mouse). When the average tumor volume in mice reached about 70-80 mm^3, grouping was performed. A total of 24 mice were divided into 3 groups, and drug administration began on the day of grouping. The administration regimen was three times per week, and the route of administration was intraperitoneal injection. […] The vehicle control group was intraperitoneally injected with an equivalent volume of PBS solution. After the start of administration, the body weight and tumor volume were measured three times per week. The tumor volume was calculated as: tumor volume (mm^3)=0.5×long diameter of tumor×(short diameter of tumor)^2. The experiment was terminated on day 7 post-administration. All mice were euthanized, and tumor tissues were collected and weighed.

[3] = molecular target: hPD-L1-his (Homo sapiens, UniProt Q9NZQ7); experiment: SPR (Biacore T200) affinity for hPD-L1-his; conditions: 1:1 binding model
Experimental: The procedures were as follows: A CM5 chip was activated with N-hydroxysuccinimide (NHS) and 1-ethyl-3-(3-dimethylaminopropyl)carbodiimide hydrochloride (EDC) at a 1:1 (v/v) ratio. Then, an anti-his antibody was immobilized, and the chip was blocked. 1 g/mL hPD-L1-his was captured onto the chip surface. […] The program was set. The samples were then loaded, and the program was executed. Data were analyzed using the Biacore Evaluation Software with the 1:1 binding model for kinetic fitting.

[4] = molecular target: Cyno PD-L1-his; experiment: SPR (Biacore T200) affinity for Cyno PD-L1-his; parameters: species or system cynomolgus monkey; conditions: ligand Cyno PD-L1-His, 1:1 binding model
Experimental: as §1

[5] = tested on: NCI-H292 cells; experiment: Internalization in human lung cancer cell line NCI-H292; type: cell-based; conditions: NCI-H292, 150 nM, 2 h, 4 h, 22 h; FIG. 28
Experimental: (1) NCI-H292 cells were collected, and 20 µL was taken for cell counting. (2) The cells were resuspended to 6×10^6 cells/mL, and the cell suspension was added into two 1.5-mL EP tubes at 100 μL/tube. (3) Diluted antibody-drug conjugate (ADC) group and antibody group samples were added separately at 100 L/tube, achieving a final sample concentration of 150 nM. The mixtures were thoroughly mixed and then incubated at 4° C. in the dark for 1 h. (4) The mixtures were washed twice with pre-cooled PBS and centrifuged at 1200 rpm for 5 min at 4° C., and then the supernatants were discarded. (5) Complete medium was added at 300 μL/tube to resuspend the cells, and the cell suspensions were separately transferred to new EP tubes at 150 L/tube, with one tube kept at 4° C. and the other incubated at 37° C. (6) After 2 h, 4 h, and 22 h, 50 L of cell suspension was collected from each of the 4° C. and 37° C. tubes, transferred to new EP tubes, mixed with 1 mL of pre-cooled PBS, and centrifuged at 1200 rpm for 5 min at 4° C., and then the supernatants were discarded. […] (9) Pre-cooled PBS was then added at 100 L/tube to resuspend the cells, and the cell suspensions were analyzed on a machine. (10) The internalization rate was calculated using the following formula: Internalization (%)=positive rate4° C. […]

[6] = tested on: CT26 hPD-L1-EX cells; experiment: Inhibition of CT26 hPD-L1-EX cell proliferation (CCK8); type: cell-based; conditions: 2 days, CCK8, replicate wells; for Inhibition % / OD450: 10 μM
Experimental: (1) CT26 hPD-L1-EX cells were collected, and 20 μL was taken for cell counting. (2) The cells were resuspended to 2×10^5 cells/mL. (3) The cell suspension was added to a 96-well plate at 50 μL/well (1×10^4 cells/well), followed by overnight culture at 37° C. with 5% CO2. (4) The next day, the 96-well plate was taken out. The test sample was diluted with complete medium containing 10% FBS and then added to the plate at 50 µL/well to achieve a final sample concentration of 10 μM. The day of test sample addition was designated as day 0. The cells were cultured at 37° C. with 5% CO2 for another 2 days. (5) Day 2: The cell growth status was observed under a microscope, and then CCK8 was added at 10 μL/well. The cells were then cultured at 37° C. with 5% CO2 for another 4 h. (6) Absorbance values at 450 nm (OD450) were measured in real-time using a microplate reader.

[7] = tested on: CT26 hPD-L1-EX cells; experiment: Inhibition of CT26 hPD-L1-EX cell proliferation (MTS); type: cell-based; conditions: replicate wells; for Inhibition % / OD490: 5 μM, 48 h
Experimental: (1) CT26 hPD-L1-EX cells were collected, and 20 μL was taken for cell counting. (2) The cells were resuspended to 0.5×10^5 cells/mL and 0.5×10^5 cells/mL (5 mL each). (3) The cell suspensions were respectively added to two 96-well plates at 50 μL/well, followed by overnight culture at 37° C. with 5% CO2. (4) The ADC sample was diluted according to predetermined concentrations and added to the well plates at 100 μL/well. (5) The cells were cultured at 37° C. with 5% CO2 for 48 h. (6) 50 μL of culture medium was first aspirated and discarded, and then an MTS reagent was added at 20 μL/well. The cells were cultured at 37° C. with 5% CO2 for another 1-4 h. (7) Readings were taken at 490 nm.

[8] = molecular target: mPD-L1-his (Mus musculus, UniProt Q9EP73); experiment: SPR (Biacore T200) affinity for mPD-L1-his; conditions: ligand mPD-L1-His, 1:1 binding model
Experimental: The program was set. The samples were then loaded, and the program was executed. Data were analyzed using the Biacore Evaluation Software with the 1:1 binding model for kinetic fitting. The above steps were repeated. 2 μg/mL hPD-L1-his, 5 μg/mL mPD-L1-his, and 5 g/mL Rat PD-L1-his were captured onto the chip surface separately. The above 4 samples were 2-fold diluted with 1×PBST. […] The program was set. The samples were then loaded, and the program was executed. Data were analyzed using the Biacore Evaluation Software with the 1:1 binding model for kinetic fitting.

[9] = tested on: A375-hPDL1-Luciferase cells; experiment: Inhibition of A375 in co-culture with human PBMCs (luciferase); type: cell-based; conditions: PBMC:A375 E:T 5:1, Matrigel, 6 days
Experimental: Cryopreserved PBMCs were taken out from a liquid nitrogen tank and added to 8 mL of pre-heated RPMI 1640 medium, and the mixture was centrifuged at 500 g for 10 min. The supernatant was discarded, and the PBMCs were resuspended in a small amount of RPMI 1640 medium. Then, the cell suspension was 10-fold diluted, and 20 μL of dilution was taken for cell counting. The cells were resuspended to 5E6 cells/mL. The A375-hPDL1-Luciferase cell suspension was collected, and 20 μL was taken for cell counting. The cells were resuspended to 1E6 cells/mL. The PBMC and A375-hPDL1-Luciferase cell suspensions were mixed at equal volumes to prepare a cell mixture with an E:T ratio of 5:1, and the mixture was adjusted to a total volume of 1500 L using RPMI 1640 complete medium. Matrigel was thawed on ice, and 1500 L of the thawed Matrigel was mixed with the cell mixture. The resulting mixture was added to a black 384-well plate at 20 μL/well, which was then placed at 37° C. for 10 min for solidification. […] The dilutions were added to the 384-well plate at 30 μL/well, and the cells were cultured at 37° C. with 5% CO2 for 6 days. Then, the 384-well plate was taken out, and Bio-Lite Luciferase Assay System was added at 20 μL/well. The mixture was incubated for 5-10 min and then assayed using a multi-mode microplate reader. The results are shown in FIG. 31, FIG. 32, and Table 7.

[10] = Table 3-1, ligand hPD-L1-His captured

Chain of hPD-L1-his (Q9NZQ7 19-290): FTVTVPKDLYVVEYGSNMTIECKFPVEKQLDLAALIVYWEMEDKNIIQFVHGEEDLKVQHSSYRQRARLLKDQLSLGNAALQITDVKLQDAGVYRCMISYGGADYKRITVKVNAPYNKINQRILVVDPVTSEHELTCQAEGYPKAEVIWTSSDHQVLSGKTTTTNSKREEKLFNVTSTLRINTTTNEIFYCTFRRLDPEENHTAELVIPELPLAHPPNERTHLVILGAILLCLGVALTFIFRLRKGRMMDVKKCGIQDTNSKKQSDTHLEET
Chain of Rat PD-L1-his (D4AE25 1-290): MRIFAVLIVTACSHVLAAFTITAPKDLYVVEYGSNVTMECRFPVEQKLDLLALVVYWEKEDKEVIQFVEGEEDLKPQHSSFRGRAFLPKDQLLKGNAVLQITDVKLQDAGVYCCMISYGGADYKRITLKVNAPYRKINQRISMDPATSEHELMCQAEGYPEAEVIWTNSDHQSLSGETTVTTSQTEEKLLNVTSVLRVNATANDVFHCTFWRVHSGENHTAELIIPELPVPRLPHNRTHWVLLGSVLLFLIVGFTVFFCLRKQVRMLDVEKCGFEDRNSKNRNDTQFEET
Chain of mPD-L1-his (Q9EP73 19-290): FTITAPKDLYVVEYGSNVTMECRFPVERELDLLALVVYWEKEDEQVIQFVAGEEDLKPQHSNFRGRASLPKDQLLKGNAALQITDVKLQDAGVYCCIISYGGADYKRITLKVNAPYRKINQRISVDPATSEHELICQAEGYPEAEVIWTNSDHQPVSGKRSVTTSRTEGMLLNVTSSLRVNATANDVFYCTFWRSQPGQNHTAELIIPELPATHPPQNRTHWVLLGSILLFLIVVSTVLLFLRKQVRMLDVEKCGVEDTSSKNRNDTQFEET

**Q.** atezolizumab [Ate antibody] was tested. Which “ka” value [1] did it give?
**A.** 2.86e+06 M⁻¹ s⁻¹

**Q.** And the “kd” value [1]?
**A.** 0.000981 s⁻¹

**Q.** And the “tumor growth inhibition rate TGI (%)” value [2]?
**A.** 16.26%

**Q.** What about the tumor volume [2] of the same compound?
**A.** 701.09 mm^3

**Q.** What about the “ka” value [3, 10] of the same compound?
**A.** 1.26e+06 M⁻¹ s⁻¹

**Q.** What about the “kd (1/s)” value [3, 10] of the same compound?
**A.** <10^−5 1/s

**Q.** And the “ka” value ([3]; Table 3-2, ligand hPD-L1-His)?
**A.** 2.46e+06 M⁻¹ s⁻¹

**Q.** What about the “kd” value ([3]; Table 3-2, ligand hPD-L1-His) of the same compound?
**A.** <1e-05 s⁻¹

**Q.** What about the Kd [4] of the same compound?
**A.** 0.0826 nM

**Q.** And the “ka” value [4]?
**A.** 1.58e+06 M⁻¹ s⁻¹

**Q.** What about the “kd” value [4] of the same compound?
**A.** 0.00013 s⁻¹

**Q.** What about the “tumor cell internalization rate” value [5] of the same compound?
**A.** increased over time

**Q.** And the Inhibition % [6]?
**A.** 13.08% and 4.39% and 10.94%

**Q.** What about the OD450 [6] of the same compound?
**A.** 2.1282 and 1.9824 and 1.9349

**Q.** And the Inhibition % [7]?
**A.** 4.42% and 5.66%

**Q.** And the OD490 [7]?
**A.** 1.1715 and 1.1587

**Q.** And the “ka” value [8]?
**A.** 1.76e+06 M⁻¹ s⁻¹

**Q.** And the “kd” value [8]?
**A.** 0.000119 s⁻¹

**Q.** What does the source list for `Nc1cc(F)ccc1NC(=O)c1ccc(CNC(=O)/C=C/c2cccnc2)cc1` [Chidamide, reference compound]?
**A.** IC50 [9]: 823 nM; Inhibition % [6]: 14.58% and 12.16%; OD450 [6]: 1.9014 and 1.9554 and 1.7934; inhibition at 10 µM ([6]; Mus musculus, CT26, 48 h): 19.4%; Inhibition % [7]: 11.73%; OD490 [7]: 1.0283 and 1.0841; inhibition at 5 µM ([7]; Mus musculus, CT26, 48 h): 16.1%
